# Columns and labels:
# Assay type in all cases: cell-based
# DU4475 cell line = assay: CellTiter-Glo cell viability assay after docetaxel, DU4475
# Procedure: (§1) MDA-MB-231, DU4475, MDA-MB-436, and MDA-MB-157 cell lines were purchased from the ATCC. MDA-MB-468, HCC1937, HS578T, and HCC38 cell lines were obtained from the Korea Cell Bank. MDA-MB-157 cell line was cultured in a Leibovitz's L15 culture medium supplemented with 10% fetal bovine serum. The MDA-MB-436 cell line was cultured in a Leibovitz's L15 culture medium supplemented with 10% fetal bovine serum and 0.026 units/ml units insulin. The MDA-MB-231 cell line, the MDA-MB-468 cell line, and the HS578T cell line were each cultured in a DMEM culture medium supplemented with 10% fetal bovine serum in 5% CO2. The remaining cell lines were each cultured in a RPMI-1640 culture medium supplemented with 10% fetal bovine serum in 5% CO2.
# (§2) In the present disclosure, docetaxel was used to find genes related to resistance to taxane-based neoadjuvant chemotherapy (NAC). Docetaxel was purchased at Sigma-Aldrich, and then, dissolved according to the instructions of the manufacturer. The cell lines were collected using trypsin treatment, counted with a hemocytometer, and plated for 14 hours at a density of 3,000 cells/well in a 96-well plate. Afterwards, the solvent was replaced with docetaxel at different concentrations (e.g., 0 nM, 0.01 nM, 0.1 nM, 1 nM, 10 nM, and 100 nM), 48 hours after exposure to docetaxel, cell viability experiments were performed using the CellTiter-Glo Luminescent Cell Viability Assay according to the protocol of the manufacture. The CellTiter-Glo Luminescent Cell Viability Assay is a method of determining the number of cells present in a culture medium depending on the amount of ATP in a culture medium. In summary, the same amount of 100 μl of CellTiter-Glo assay reagents were added to each well, incubated for 10 minutes at room temperature, and then, measured according to the luminometry. The experiment was repeated twice, and the 50% inhibitory concentration of each cell line was measured by non-linear regression analysis.
# MDA-MB-468 cell line = assay: CellTiter-Glo cell viability assay after docetaxel, MDA-MB-468
# Procedure: as §1, §2
# MDA-MB-231 cell line = assay: CellTiter-Glo cell viability assay after docetaxel, MDA-MB-231
# Procedure: as §1, §2
# HCC1937 cell line = assay: CellTiter-Glo cell viability assay after docetaxel, HCC1937
# Procedure: as §1, §2
# MDA-MB-157 cell line = assay: CellTiter-Glo cell viability assay after docetaxel, MDA-MB-157; settings: MDA-MB-15T
# Procedure: as §1, §2
# HCC38 cell line = assay: CellTiter-Glo cell viability assay after docetaxel, HCC38
# Procedure: as §1, §2
# HS578T cell line = assay: CellTiter-Glo cell viability assay after docetaxel, HS578T
# Procedure: as §1, §2
# MDA-MB-436 cell line = assay: CellTiter-Glo cell viability assay after docetaxel, MDA-MB-436
# Procedure: as §1, §2
smiles,measurement,setting,value
"CC(=O)O[C@@]12CO[C@@H]1C[C@H](O)[C@@]1(C)C(=O)[C@H](O)C3=C(C)[C@@H](OC(=O)[C@H](O)[C@@H](NC(=O)OC(C)(C)C)c4ccccc4)C[C@@](O)([C@@H](OC(=O)c4ccccc4)[C@H]21)C3(C)C [Docetaxel, docetaxel]",Survival fraction,"DU4475 cell line; DU4475, 50 nM",0.37
same,Survival fraction,"DU4475 cell line; DU4475, 100 nM",0.27
same,IC50,"DU4475 cell line; Homo sapiens, DU-4475, DU4475, 48 hours exposure",11.6 nM
same,IC50,"MDA-MB-468 cell line; Homo sapiens, MDA-MB-468, 48 hours exposure",1.81 nM
same,Survival fraction,"MDA-MB-468 cell line; MDA-MB-468, 50 nM",0.27
same,Survival fraction,"MDA-MB-468 cell line; MDA-MB-468, 100 nM",0.26
same,IC50,"MDA-MB-231 cell line; Homo sapiens, MDA-MB-231, 48 hours exposure",29.1 nM
same,Survival fraction,"MDA-MB-231 cell line; MDA-MB-231, 50 nM",0.47
same,Survival fraction,"MDA-MB-231 cell line; MDA-MB-231, 100 nM",0.35
same,Survival fraction,"HCC1937 cell line; HCC1937, 50 nM",0.76
same,Survival fraction,"HCC1937 cell line; HCC1937, 100 nM",0.70
same,IC50,"HCC1937 cell line; Homo sapiens, HCC1937, 48 hours exposure",> 100 nM
same,IC50,"MDA-MB-157 cell line; Homo sapiens, MDA-MB-157, 48 hours exposure",> 100 nM
same,Survival fraction,MDA-MB-157 cell line; 50 nM,0.65
same,Survival fraction,MDA-MB-157 cell line; 100 nM,0.65
same,Survival fraction,"HCC38 cell line; HCC38, 50 nM",0.57
same,Survival fraction,"HCC38 cell line; HCC38, 100 nM",0.53
same,IC50,"HCC38 cell line; Homo sapiens, HCC38, 48 hours exposure",> 100 nM
same,Survival fraction,HS578T cell line; 50 nM,0.32
same,Survival fraction,HS578T cell line; 100 nM,0.29
same,IC50,"HS578T cell line; Homo sapiens, Hs-578T, 48 hours exposure",11.1 nM
same,IC50,"MDA-MB-436 cell line; Homo sapiens, MDA-MB-436, 48 hours exposure",> 100 nM
same,Survival fraction,"MDA-MB-436 cell line; MDA-MB-436, 50 nM",0.81
same,Survival fraction,"MDA-MB-436 cell line; MDA-MB-436, 100 nM",0.75
